Consider ten molecules from ChEMBL document CHEMBL1201862, “PubChem BioAssay data set” (2004).

Test systems include UACC-257; SNB-19; NCI-H460; MDA-MB-231; A549; SR; OVCAR-3; CCRF-CEM; K562; Malme-3M; HL-60; RXF 393; Hs-578T; ACHN; UACC-62; SN12C; HOP-62; SF-295; HCT-15; OVCAR-5.
Common to all, as to assay: NCI tumour cell line growth inhibition, 48 h

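Grown in 96-well plates, cells were treated for 48 hours with each compound at five concentrations. Insufficient inhibition: endpoint recorded as highest concentration tested. GI50 marks 50% less growth.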 Active and inactive are the calls of the source. Rule as the data show it: active = GI50 up to about 1.1 µM and inactive = higher. Some results are limits rather than exact numbers.

In the case of `CN1CCN(C2=CC(=O)c3c(O)ccc(O)c3C2=O)CC1`, the GI50 with UACC-257 was 0.244 µM (active); with SNB-19, 1.69 µM (inactive); in the assay with NCI-H460, 1.9 µM (inactive); in the assay on MDA-MB-231, 1.46 µM (inactive); with A549, 1.79 µM (inactive); in the assay on SR it was 1.38 µM (inactive). In addition, the GI50 is 0.23 µM (active) in the assay on OVCAR-3; 0.501 µM (active) in the assay with CCRF-CEM; 0.347 µM (active) in the assay with K562; 0.228 µM (active) with Malme-3M; 0.298 µM (active) with HL-60; 1.57 µM (inactive) with RXF 393. Also, the GI50 in the assay on Hs-578T is 2.03 µM (inactive); in the assay with ACHN it was 1.54 µM (inactive); in the assay with UACC-62, 1.65 µM (inactive); with SN12C it was 1.64 µM (inactive); in the assay on HOP-62, 1 µM (active); with SF-295 it was 1.69 µM (inactive).
Take `COC(=O)C12OCC34C(CC5C(C)=C(O)C(=O)CC5(C)C3C(O)C1O)OC(=O)C(OC(=O)C=C(C)C)C24` (configuration not stated): the GI50 with UACC-257 is 423 µM (inactive); with SNB-19 it was 368 µM (inactive); in the assay on HCT-15 it was over 500 µM; in the assay on NCI-H460, 161 µM (inactive); with MDA-MB-231 it was 0.0234 µM (active); with A549, > 500 µM (inactive). The GI50 is 0.215 µM (active) with SR; > 500 µM (inactive) in the assay on OVCAR-5; 307 µM (inactive) in the assay with CCRF-CEM; > 486 µM (inactive) with K562; 228 µM (inactive) in the assay with Malme-3M; 498 µM (inactive) in the assay on HL-60. Further, the GI50 in the assay with RXF 393 is 303 µM (inactive); in the assay with Hs-578T, < 0.215 µM (active); with ACHN it was 0.247 µM (active); in the assay with UACC-62, > 500 µM (inactive); in the assay on SN12C, > 500 µM (inactive); in the assay with HOP-62, > 500 µM (inactive). Besides, the GI50 in the assay on SF-295 was > 500 µM (inactive).
Regarding `COc1cc2c3c(c1OC)-c1cc4c(cc1CC3(C#N)N(C(=O)c1ccccc1)CC2)OCO4` (configuration not stated), the GI50 in the assay with UACC-257 is 60.4 µM (inactive); in the assay with SNB-19, 22.2 µM (inactive); in the assay on HCT-15 it was over 100 µM; with NCI-H460, 52.6 µM (inactive); with MDA-MB-231, 67.6 µM (inactive); in the assay on A549, 37.5 µM (inactive). Further, the GI50 was 65.9 µM (inactive) in the assay with SR; 40.5 µM (inactive) with OVCAR-3; > 56.2 µM (inactive) in the assay on OVCAR-5; > 100 µM (inactive) in the assay with CCRF-CEM; 73.5 µM (inactive) in the assay with K562; 35.3 µM (inactive) with Malme-3M. Also, the GI50 in the assay with HL-60 was > 100 µM (inactive); in the assay with RXF 393 it was 8.73 µM (inactive); in the assay on Hs-578T, 19.6 µM (inactive); in the assay with ACHN, 40.4 µM (inactive); in the assay with UACC-62 it was 16.4 µM (inactive); in the assay with SN12C it was 50.7 µM (inactive). Also, the GI50 with HOP-62 was 42.1 µM (inactive); with SF-295, 33.3 µM (inactive).
With `COC(=O)[C@@H]1Cc2cc(O)c(O)cc2C2(CCN(C)CC2)O1`, the GI50 in the assay on UACC-257 is > 10 µM (inactive); in the assay with SNB-19, > 10 µM (inactive); in the assay on HCT-15, over 10 µM; in the assay with NCI-H460, > 10 µM (inactive); in the assay with MDA-MB-231, > 10 µM (inactive); with A549, > 10 µM (inactive). The GI50 in the assay with SR, with OVCAR-3, with OVCAR-5, in the assay on CCRF-CEM, in the assay with Malme-3M and in the assay with HL-60 was > 10 µM (inactive) throughout. Also, the GI50 with RXF 393, in the assay on Hs-578T, with ACHN, with UACC-62, in the assay on SN12C and in the assay with HOP-62 was > 10 µM (inactive) each time. The GI50 with SF-295 is > 10 µM (inactive).
`C[C@]12CC[C@H](O)CC1=CC[C@@H]1[C@@H]2CC[C@]2(C)c3nc(Cl)ccc3C[C@@H]12`: the GI50 with UACC-257 was > 100 µM (inactive); in the assay with SNB-19, 36.1 µM (inactive); with HCT-15, 9.46 µM; with NCI-H460 it was 28.1 µM (inactive); in the assay with MDA-MB-231 it was > 94.6 µM (inactive); with A549 it was 25 µM (inactive). In addition, the GI50 was 11.4 µM (inactive) with SR; 27.3 µM (inactive) in the assay on OVCAR-3; > 80.9 µM (inactive) with OVCAR-5; 8.17 µM (inactive) in the assay on CCRF-CEM; 5.78 µM (inactive) with K562; 53 µM (inactive) with Malme-3M. The GI50 with HL-60 was 40.1 µM (inactive); in the assay on RXF 393, 37.9 µM (inactive); in the assay with Hs-578T it was 35.2 µM (inactive); in the assay on ACHN, 15.6 µM (inactive); in the assay on UACC-62, 11.5 µM (inactive); in the assay on SN12C, 44.8 µM (inactive). In addition, the GI50 was 30.7 µM (inactive) with HOP-62 and 28.2 µM (inactive) in the assay with SF-295.
Take `CCCC(O)c1cn(C(NC(=O)c2ccccc2)P(=O)(OCC)OCC)nn1` (configuration not stated): the GI50 in the assay with UACC-257 is > 100 µM (inactive); in the assay on SNB-19 it was > 100 µM (inactive); in the assay with HCT-15, over 100 µM; with NCI-H460, > 100 µM (inactive); in the assay with MDA-MB-231, > 100 µM (inactive); in the assay with A549, > 100 µM (inactive). Moreover, the GI50 in the assay with SR, in the assay on OVCAR-3, in the assay on CCRF-CEM, with K562, in the assay on Malme-3M and in the assay with HL-60 was > 100 µM (inactive) in each case. Also, the GI50 is > 100 µM (inactive) with RXF 393; > 100 µM (inactive) in the assay with Hs-578T; > 100 µM (inactive) in the assay with ACHN; 39.4 µM (inactive) in the assay on UACC-62; > 100 µM (inactive) in the assay on SN12C; > 100 µM (inactive) in the assay on HOP-62. Further, in the assay on SF-295, the GI50 was > 100 µM (inactive).
On to `C#CC1NC(=O)C1N(CC)CC` (configuration not stated), for which the GI50 in the assay on UACC-257 is > 100 µM (inactive); in the assay on SNB-19, > 100 µM (inactive); in the assay with HCT-15 it was over 100 µM; in the assay with NCI-H460, > 100 µM (inactive); in the assay with MDA-MB-231 it was > 100 µM (inactive); in the assay with SR it was > 100 µM (inactive). The GI50 with OVCAR-3, in the assay with OVCAR-5, with CCRF-CEM, with K562, in the assay with Malme-3M and with HL-60 was > 100 µM (inactive) each time. In addition, the GI50 in the assay with RXF 393, with Hs-578T, in the assay on ACHN, in the assay on UACC-62, with SN12C and in the assay with HOP-62 was > 100 µM (inactive) in each case. In addition, the GI50 with SF-295 is > 100 µM (inactive).
Regarding `C=C(CN(CC)CC)C1(c2ccccc2)CC2(CCCC2)C(=O)O1` (configuration not stated), the GI50 is 34.4 µM (inactive) in the assay with UACC-257; > 100 µM (inactive) in the assay on SNB-19; over 100 µM in the assay with HCT-15; 68.7 µM (inactive) in the assay with NCI-H460; > 100 µM (inactive) with MDA-MB-231; > 100 µM (inactive) in the assay with A549. For the same molecule, the GI50 is > 100 µM (inactive) with SR; 82 µM (inactive) with OVCAR-3; > 100 µM (inactive) with OVCAR-5; > 100 µM (inactive) with CCRF-CEM; > 100 µM (inactive) in the assay with K562; > 100 µM (inactive) in the assay on Malme-3M. In addition, the GI50 is 40.6 µM (inactive) in the assay with HL-60; > 100 µM (inactive) with RXF 393; > 100 µM (inactive) in the assay on Hs-578T; > 100 µM (inactive) in the assay on ACHN; > 100 µM (inactive) in the assay on UACC-62; > 100 µM (inactive) with SN12C. For the same molecule, the GI50 in the assay on HOP-62 and in the assay with SF-295 was > 100 µM (inactive) each time.
Regarding `ClCCN(CCCl)c1ccc(CNCCCNCc2ccc(N(CCCl)CCCl)cc2)cc1`, the GI50 with UACC-257 is 2.29 µM (inactive); with SNB-19 it was 1.87 µM (inactive); with HCT-15 it was 2.47 µM; with NCI-H460, 0.402 µM (active); in the assay with MDA-MB-231, 2.7 µM (inactive); in the assay with A549, 3.2 µM (inactive). The GI50 in the assay with SR is 0.11 µM (active); in the assay on OVCAR-3, 2.69 µM (inactive); in the assay with OVCAR-5, 3.97 µM (inactive); with CCRF-CEM, 2.78 µM (inactive); in the assay on K562, 1.93 µM (inactive); in the assay on Malme-3M, 2.44 µM (inactive). In addition, the GI50 with HL-60 is 1.03 µM (active); in the assay with RXF 393, 1.59 µM (inactive); in the assay with Hs-578T it was 3.13 µM (inactive); in the assay on ACHN, 0.521 µM (active); in the assay with UACC-62, 1.97 µM (inactive); in the assay on SN12C it was 1.63 µM (inactive). In addition, the GI50 in the assay with HOP-62 was 2.54 µM (inactive).
With `C=C(CCOC)CCC1CCCCC(CN(C)C)C1=O` (configuration not stated), the GI50 is > 100 µM (inactive) with SNB-19; over 100 µM with HCT-15; > 100 µM (inactive) in the assay on NCI-H460; > 100 µM (inactive) in the assay with MDA-MB-231; > 100 µM (inactive) in the assay on A549; > 100 µM (inactive) with SR. For the same molecule, the GI50 with OVCAR-3, in the assay with OVCAR-5, in the assay on CCRF-CEM, in the assay on K562, in the assay on Malme-3M and in the assay on HL-60 was > 100 µM (inactive) throughout. The GI50 with RXF 393, in the assay on Hs-578T, in the assay on ACHN, in the assay with UACC-62, in the assay on SN12C and in the assay with HOP-62 was > 100 µM (inactive) each time. Besides, the GI50 in the assay on SF-295 is > 100 µM (inactive).
